The source of these data is patent US20230167458A1, “FORSKOLIN-INDUCIBLE PROMOTERS AND HYPOXIA-INDUCIBLE PROMOTERS” (ASKLEPIOS BIOPHARMACEUTICAL, INC., priority 2020, published 2023).

The test system of one series is CHO-GS-KSV1 cell line. The series can be described thus: SEAP expression in stably transfected CHO-GS-KSV1, forskolin or NKH477 induction. To be noted: for optimal inducer concentration to induce expression from RTV-019: stably transfected CHO-GS-KSV1/CHO-K1SV, SEAP after 24 hours, 2, 5, 9, 18 or 32 pM tested. Type of series: cell-based, chinese hamster. As to the method:
The forskolin-inducible promoters were then tested in a stably transfected CHO-GS-KSV1 cell line.
• CD-CHO media (Life technologies, CAT #10743029) • Corning 125 mL Polycarbonate Erlenmeyer Flask with Vent Cap (CAT #734-1885). • Gene Pulser® Electroporation Cuvettes, 0.4 cm gap (BioRad, CAT #165-2088) • Gene Pulser Xcell Total System (BioRad, CAT, #1652660) • GS-vector DNA ([…] in 100 μL TE buffer) linearised with Sca1 • Suspension cultures of CHOK1SV GS-KO host cells.
Cell suspensions of 6×10^5 cells per mL were incubated on an orbital shaker set at 8% CO2, 20% O2, 37° C., 85% relative humidity and 140 rpm overnight. 2.86×10^7 cells were centrifuged at 200 g for 3 minutes. Media was then aspirated and cell pellet resuspended in 2 mL fresh CD-CHO media to obtain a concentration of 1.43×10^7 cells per mL. 700 μL of cell suspension was added to each of two electroporation cuvettes each containing […] of linearised DNA in 100 μL of sterile TE buffer (Thermofisher, 12090015). Each cuvette was electroporated, delivering a single pulse of 300V, […] with resistance to infinity. Immediately after delivery of pulse electroplated cells were transferred to Erlenmeyer 125 mL flask containing 20 mL of CD-CHO media pre-warmed to 37° C. Electroporated cells from two cuvettes are combined into a single 125 mL flask to generate one pool of cells. Cells are cultured on an orbital shaker set at 8% CO2, 20% O2, 37° C., 85% relative humidity and 140 rpm. Cells are transferred to fresh CD-CHO media 24 hours after transfection and cell cultures monitored and given fresh CD-CHO media every 2-4 days. Usually after about 10-14 days cell numbers will be high enough to start passaging.
The transfected DNA was the pXC-17.4 expression vector (Lonza Biologics plc) where one of the promoter constructs (or a control promoter (CMV-IE) have been cloned upstream of the secreted alkaline phosphatase (SEAP) gene, which had been cloned into the multiple cloning site within the vector expression cassette. Promoters were closed into the pXC-17.4 vector using Gibson assembly. The pXC-17.4 expression vector is designed for making stable cell lines in the CHO-GSK1SV cell line as it contains the […] gene which has been knocked out of the cell line. Therefore, selection of cells in glutamine drop-out medium will select for cells that have stably integrated the plasmid.
The responsiveness of the RTV-019 promoter to different concentrations of forskolin and […] was tested in the stably transfected CHO-GS-KSV1 cell line. To this end, the stably transfected CHO-GS cells were seeded at 500,000 cells/ml and allowed to grow for 24 hrs. At this point the cells were induced by addition of the respective concentrations of forskolin and NKH477 and SEAP expression was measured as described below after 24 hours.
The promoter activity and inducibility of FMP-02, FORCYB-001, RTV-017, FORCSV-10, FOR-CMC-009, FLP-01 and RTV-019 were also tested in the stably transfected CHO-GS-KSV1 cell line. To this end, the stably transfected CHO-GS cells were seeded at 500,000 cells/ml and allowed to grow for 24 hrs. At this point the cells were exposed to […] forskolin or […] NKH477 for 24 hours. After this point, the SEAP activity in the medium was assessed as described below.
SEAP Reporter Gene Assay, chemiluminescent (Roche, CAT #11 779 842 001) was used to measure SEAP activity as per the manufacturer's protocol. All reagents and samples were fully pre-equilibrated at room temperature. Culture supernatant was collected from the stably transfected CHO-GS at the specific time points (0 h and 24 h). The supernatant was diluted 1:4 in dilution buffer and heat treated at 65° C. for 30 minutes. The heat-treated sample was then centrifuged for 30 s at maximum speed. 50 μl of the heat-treated sample was then added to 5 μl of inactivation buffer and incubated for 5 min at room temperature. 50 μl of substrate reagent was then added and incubated for 10 min at room temperature. […]

Series [1] concerns Huh7 human liver cell line. The series can be described thus: Luciferase expression from promoters in pAAV vector (with ITRs) in Huh7, forskolin or NKH477 induction. The arrangement: fold induction with forskolin: dose or concentration left out as unconfirmed.
Method: The forskolin-inducible promoters RTV-017, RTV-019 and FORCYB1 were then used to drive expression of luciferase in a pAAV vector in the Huh7 human liver cell line. […] This experiment was performed to investigate the effect of the Inverted Terminal Repeats (ITRs) on the activity of the promoters.
The cells were seeded, transfected and induced as described above. Luciferase expression was measured as described above. In this experiment, the cells were induced by using 20 pM forskolin or 7.2 pM of the water soluble derivative NKH477.

In the case of `C=C[C@@]1(C)CC(=O)[C@]2(O)[C@@]3(C)[C@@H](O)CCC(C)(C)[C@@H]3[C@H](O)[C@H](OC(C)=O)[C@@]2(C)O1` [Forskolin], the “optimal inducer concentration to induce expression from RTV-019” value with CHO-GS-KSV1 cell line was “about 18 pM”; in the series on CHO-GS-KSV1 cell line (listed as forskolin), 18 µM.

Turning to `C=C[C@@]1(C)CC(=O)[C@]2(O)[C@@]3(C)[C@@H](O)CCC(C)(C)[C@@H]3[C@H](OC(=O)CCN(C)C)[C@H](OC(C)=O)[C@@]2(C)O1.Cl` [NKH477, NKH 477], in the series with CHO-GS-KSV1 cell line (stable CHO-GS-KSV1, 7.2 µM NKH477 vs 20 µM forskolin), the “potency as inducer of the promoters compared with forskolin” value is recorded as “slightly more potent inducer”. Besides, the optimal inducer concentration to induce expression from RTV-019 in the series on CHO-GS-KSV1 cell line was 8 µM; with CHO-GS-KSV1 cell line (listed as NKH 477), “about 8 pM”.

B1: FORCYB1: synthetic forskolin-inducible promoter, SEQ ID NO: 45; 5× cAMPRE and 4× AP1 TFBS and YB-TATA (nucleic acid)
DNA: TGACGTCACGATTACCATTGACGTCACGATTACCATTGACGTCACGATTACCATTGACGTCACGATTACCATTGACGTCAGCGATTAAGATGACTCAGCGATTAAGATGACTCAGCGATTAAGATGACTCAGCGATTAAGATGACTCAGCGATTAATCCATATGCTCTAGAGGGTATATAATGGGGGCCACTAGTCTACTACCAGAAAGCTTGGTACCGAGCTCGGATCCAGCCACC
modifications: synthetic forskolin-inducible promoter
Turning to B1, in series [1] (Huh7), the “fold induction with forskolin” value was found to be 65 fold and the “luciferase activity without induction (background)” value is recorded as “low background activity”. Further, in series [1] (Huh7, 7.2 pM NKH477), the “fold induction with NKH477” value is on record as 30 fold. In addition, in series [1] (Huh7, or 7.2 pM NKH477), the “luciferase activity following induction” value is “high activity”.
